Measurements from publication PMC7822874, “Chemoprotective antimalarials identified through quantitative high-throughput screening of Plasmodium blood and liver stage parasites” (Scientific Reports, 2021).
Where two headings read alike, the source gives them in different places.

Legend:
[1] = tested on: Plasmodium falciparum Dd2 asexual blood stage parasites; assay: microbe, parasite or virus in culture; design: species or system Plasmodium falciparum Dd2 in human erythrocytes; single determination (one 11-point concentration-response curve); details: Plasmodium falciparum, DD2, Erythrocyte, 72 h; read-out: AC50
[2] = tested on: P. berghei-ANKA-GFP-LucCON liver stage parasites in HepG2-A16-CD81EGFP cells; assay: P. berghei liver stage Pb-Luc assay, Method 1 (UCSD, 1536-well); format: cell-based, Plasmodium berghei; details: for activity at 1 µM / activity at 3 µM / AC50: Plasmodium berghei; for activity at 1 µM / activity at 3 µM: 48 h, average of 2 wells on a 1536 well plate; for activity at 1 µM: 1 uM (compounds provided at 10 mM); for activity at 3 µM: 3 uM (compounds provided at 10 mM); for AC50 / Max Resp (signal direction of the dose response): Method 1; for Max Resp (signal direction of the dose response): Decrease = decreasing P. berghei viability with dose, Increase = increasing signal, Inactive = no dose response
[3] = in vitro; details: human
[4] = column 11, read-out: Pb-Luc (P. berghei liver stage), % of control, lower concentration, first repeat
[5] = column 12, read-out: Pb-Luc (P. berghei liver stage), % of control, lower concentration, second repeat
[6] = column 8, read-out: Pb-Luc (P. berghei liver stage), % of control, higher concentration, first repeat
[7] = column 9, read-out: Pb-Luc (P. berghei liver stage), % of control, higher concentration, second repeat
[8] = HepG2-A16-CD81EGFP cells, uninfected
[9] = Hill fit, 50% of maximum activity response, read-out: AC50
[10] = log10 of molar AC50 from Hill fit, read-out: Log AC50 (converted)

SMILES	AC50 [1] [nM]	activity at 1 µM [2, 4] [%]	activity at 1 µM [2, 5] [%]	activity at 3 µM [2, 6] [%]	activity at 3 µM [2, 7] [%]	viability at 48 h, 1 µM [3, 8] [%]	viability at 48 h, 3 µM [3, 8] [%]	AC50 [2, 9] [nM]	AC50 [2, 10] [nM]	viability at 66 h [3] [%]	Max Resp (signal direction of the dose response) [2]	viability at 48 h [3] [%]	viability at 48 h, 1 µM [3] [%]	viability at 48 h [3, 8] [%]	viability at 66 h [3, 8] [%]
CCCSc1ccc([C@H]2N[C@@](Cc3ccccc3)(C(=O)OC)[C@H]3C(=O)N(CC)C(=O)[C@@H]23)cc1 [MLS001362807-01]	5310	115	102	124	103	109	103	–	–	–	–	–	–	–	–
CCOC(=O)c1cnc2c(C)cc(C)cc2c1O [MLS000530578-01]	4220	–	–	–	–	–	–	1410	1410	104	–	–	–	–	–
CC1=C(CC(=O)c2ccc(Cl)cc2)C(=O)c2ccccc2C1=O [MLS000543314-01]	211	78	79	77	70	105	100	–	–	–	–	–	–	–	–
Cc1cc(NC2C3CC4CC(C3)CC2C4)n2nnnc2n1 (centres unmarked) [MLS000033680-01]	–	124	128	108	131	99	108	–	–	–	–	–	–	–	–
CCOc1ccc(NC(=O)c2cc3ccccc3cc2O)cc1 [MLS000736677-01]	5310	–	–	–	–	–	–	501	501	–	Decrease	100	100	–	–
COc1cc2nc(Nc3ccc(C)c(Cl)c3)nc(N)c2cc1OC [MLS001199666-01]	2110	99	121	97	111	109	100	–	–	–	–	–	–	–	–
COc1ccccc1CNCC(O)(c1ccc(Cl)cc1)c1ccc(Cl)cc1 [MLS000325719-01]	1500	101	103	108	98	95	101	–	–	–	–	–	–	–	–
Oc1ccccc1Nc1nc(NCc2ccco2)c2ccccc2n1 [MLS000693437-01]	2990	–	–	–	–	95.6	–	–	–	–	Inactive	–	–	95.6	–
CCOC(=O)c1nnn(-c2nonc2-n2cccc2)c1CN1CCC(C(=O)OCC)CC1 [MLS000538888-01]	4730	103	96	92	82	108	103	–	–	–	–	–	–	–	–
COc1cc(O)c(C(CCN2CCCCC2)c2ccc3c(c2)OCO3)c(OC)c1 (centres unmarked) [MLS000879495-01]	1330	100	116	99	98	113	94	–	–	–	–	–	–	–	–
Cc1ccc(C)c(NC(=O)CN(C)C(=O)c2ccc(-c3ccc(Cl)cc3)o2)c1 [MLS001077062-01]	4730	137	128	154	145	98	102	–	–	–	–	–	–	–	–
COc1ccccc1NC(=O)CN1CCN(C(=O)c2ccco2)CC1 [MLS000122729-01]	–	130	101	50	80	101	101	–	–	–	–	–	–	–	–
CCCOc1ccc(CCc2nnc(S)n2Cc2ccccc2)cc1 [MLS000562311-01]	5310	157	149	161	162	122	100	–	–	–	–	–	–	–	–
CC(C)(C)OC(=O)N1CCC(CC2CC(c3ccccc3)=NO2)(C(=O)NCc2ccccc2)CC1 (centres unmarked) [MLS002174287-01]	2660	140	108	65	115	111	95	–	–	–	–	–	–	–	–
COc1cc(O)c(C(CCN2CCN(c3ccccc3)CC2)c2ccc3c(c2)OCO3)c(OC)c1 (centres unmarked) [MLS000879526-01]	841	105	112	97	92	117	96	–	–	–	–	–	–	–	–
COc1ccc(C)cc1N(C(=O)COc1cccc(F)c1)c1nc2ccccc2s1 [MLS000394477-01]	5960	105	106	107	110	91	106	–	–	–	–	–	–	–	–
Cc1ccc(/C=N/Nc2cc(C)nc(NCc3ccccc3)n2)cc1 [MLS000769291-01]	5310	97	106	138	126	98	95	–	–	–	–	–	–	–	–
C=C(C)COc1ccc(-c2n[nH]cc2-c2ccc(OC)c(OC)c2)c(O)c1 [MLS000084580-01]	6680	–	–	–	–	–	–	501	501	–	Decrease	–	–	–	36

SMILES	AC50 [1] [nM]	activity at 1 µM [2, 4] [%]	activity at 1 µM [2, 5] [%]	activity at 3 µM [2, 6] [%]	activity at 3 µM [2, 7] [%]	viability at 48 h, 1 µM [3, 8] [%]	viability at 48 h, 3 µM [3, 8] [%]	AC50 [2, 9] [nM]	AC50 [2, 10] [nM]	viability at 66 h [3] [%]	Max Resp (signal direction of the dose response) [2]	viability at 48 h [3] [%]	viability at 48 h, 1 µM [3] [%]	viability at 48 h [3, 8] [%]	viability at 66 h [3, 8] [%]
CCOC(=O)c1c(C)oc2c1C(=O)c1ccccc1C2=O [MLS000684830-01]	422	95	85	72	93	105	99	–	–	–	–	–	–	–	–
COc1cc(C#Cc2c(-c3cncn3C)n(C)c3ccc(-c4ccc5[nH]ccc5c4)cc23)cc(OC)c1 [MLS002391601-01]	2370	112	94	111	101	105	102	–	–	–	–	–	–	–	–
CC(C)(C)CC(C)(C)c1ccc(O)c(CN2CCN(CCC#N)CC2)c1 [MLS000026875-01]	841	129	117	119	112	112	97	–	–	–	–	–	–	–	–
Oc1cc(Cc2ccccc2)cnc1CN1CCCCC1 [MLS000104838-01]	944	128	110	97	103	98	105	–	–	–	–	–	–	–	–
Nc1cc[n+](CC(=O)c2ccc3c(c2)OCCO3)cc1 [MLS000391090-01]	13300	–	–	–	–	97.8	–	–	–	–	Inactive	–	–	97.8	–
COc1ccc(Cc2nnc(NC(=O)c3ccc(OC)cc3OC)s2)cc1 [MLS001211969-01]	–	125	130	128	128	100	104	–	–	–	–	–	–	–	–
COc1cccc(CNCC(O)(c2ccc(Cl)cc2)c2ccc(Cl)cc2)c1 [MLS000325699-01]	–	124	99	99	98	106	101	–	–	–	–	–	–	–	–
c1cncc(-c2nnc(-c3cccnc3)nn2)c1 [MLS000075752-01]	–	110	109	109	117	98	100	–	–	–	–	–	–	–	–
COc1ccccc1N1CCN(C(=O)c2ccc3c(=O)n(Cc4ccc5c(c4)OCO5)c(=O)[nH]c3c2)CC1 [MLS001028591-01]	2990	–	–	–	–	–	–	–	–	–	–	–	–	–	94
CCOC(=O)CC(=O)CSc1nc2ccccc2c(=O)n1-c1ccc(C(=O)N2CCOCC2)cc1 [MLS000095558-01]	13300	–	–	–	–	87	87	–	–	–	–	–	–	–	–
COc1ccc(C2C(C(=O)N3CCCCC3)CC(=O)N2c2ccc(OC)cc2)cc1 (centres unmarked) [MLS000519691-01]	7500	–	–	–	–	85	91	–	–	–	–	–	–	–	–
C=C(C)COc1ccc(-c2ncnc(C(F)(F)F)c2-c2ccccc2)c(O)c1 [MLS001216193-01]	2370	–	–	–	–	104	97	–	–	–	–	–	–	–	–
NNC(=O)CN1C(c2cccc(Cl)c2)=Nc2ccc(Br)cc2C1c1ccccc1 (centres unmarked) [MLS000558682-01]	2660	–	–	–	–	90	89	–	–	–	–	–	–	–	–
CC(CCc1ccccc1)NCC(O)c1cccc([N+](=O)[O-])c1 (centres unmarked) [MLS000712395-01]	473	–	–	–	–	104	106	–	–	–	–	–	–	–	–
COc1ccc(NC2=NC3(CCCCC3)N=C(N)N2)cc1 [MLS000090248-01]	–	133	110	100	80	113	97	–	–	–	–	–	–	–	–
CC1(C)Cc2c(c(N3CCOCC3)nc3snc(Br)c23)CO1 [MLS000071231-01]	299	–	–	–	–	87	86	–	–	–	–	–	–	–	–
Cc1nn(-c2nnc(NCc3ccccc3)nn2)c(C)c1Br [MLS000704225-01]	841	–	–	–	–	105	92	–	–	–	–	–	–	–	–
